Read-outs that look alike come from different tables or passages of the source.
Tests used:
[1] = Pharmacokinetic and drug-drug interaction studies in blood-fed mosquitoes (concentration-time courses, population PK modelling); conditions: for Course / extent of elimination from the mosquitoes: IVM 0.1, KCZ 5, RIF 10, PBO 10 μg/ml in blood, up to 72 h; for Type of elimination kinetics in the mosquito: IVM 0.1, KCZ 5, RIF 10, RTV 10, PBO 10 μg/ml in blood; for Effect of the co-administered CYP modulator on the PK of ivermectin: ivermectin 0.1 μg/ml plus KCZ 5, RIF 10, RTV 10 or PBO 10 μg/ml in blood, 72 h
Aedes aegypti mosquitoes [2] = experiment: Drug effect on mosquito fecundity (eggs laid after 96 h); type: in vivo; conditions: 4 days; IVM 0.1, KCZ 5, RIF 10, RTV 10, PBO 10 μg/ml in blood; 50 mosquitoes
Protocol: The mixtures were rotated at room temperature for 30 min to ensure a uniform drug distribution (Rotator Genie, Scientific Industries, Bohemia, USA). […] Twelve hours later, the tap water was also removed to starve the mosquitoes. […] The mosquitoes were then feeding from blood through the netting and the Parafilm membrane. […] The photoperiod of the climate chamber and the insectary were synchronised. […] The engorged mosquitoes were either directly frozen at -20°C or returned to the climate chamber for certain time periods to assess the PK. […] Blood feeding was done as described above. […] In contrast to the PK experiments, the mosquitoes had unlimited access to water because a moistened oviposition substrate was inserted into the paper cup. Fecundity was defined as the total number of eggs laid after 96 h. […] The filter paper served as the oviposition substrate. The cotton wool was soaked with fresh water and covered by a new filter paper after 48, 72, and 96 h post-treatment. After the assay, the eggs were left to mature for 24 h in the insectary. […] R Foundation for Statistical Computing, http://www.R-project.org, Vienna, Austria). Normality was assessed using the Shapiro-Wilk test. For normally distributed data (mortality, fecundity), group differences were assessed with one-way ANOVA testing, and, where applicable, followed up with Tukey's test. Group differences in fertility (not normally distributed) were evaluated with Kruskal-Wallis one-way analysis of variance, and Wilcoxon rank sum testing as post-hoc.

Aedes aegypti mosquitoes [3] = experiment: Drug effect on mosquito fertility (percentage of eggs hatched); type: in vivo; conditions: 100 eggs laid 48-96 h post-treatment; IVM 0.1, KCZ 5, RIF 10, RTV 10, PBO 10 μg/ml in blood
Protocol: The mixtures were rotated at room temperature for 30 min to ensure a uniform drug distribution (Rotator Genie, Scientific Industries, Bohemia, USA). […] Twelve hours later, the tap water was also removed to starve the mosquitoes. […] The mosquitoes were then feeding from blood through the netting and the Parafilm membrane. […] The photoperiod of the climate chamber and the insectary were synchronised. […] The engorged mosquitoes were either directly frozen at -20°C or returned to the climate chamber for certain time periods to assess the PK. […] Blood feeding was done as described above. […] In contrast to the PK experiments, the mosquitoes had unlimited access to water because a moistened oviposition substrate was inserted into the paper cup. […] Any hatched larva was counted and transferred to a rearing tray with a plastic pipette. The fertility was calculated as the percentage of eggs hatched. […] R Foundation for Statistical Computing, http://www.R-project.org, Vienna, Austria). Normality was assessed using the Shapiro-Wilk test. For normally distributed data (mortality, fecundity), group differences were assessed with one-way ANOVA testing, and, where applicable, followed up with Tukey's test. Group differences in fertility (not normally distributed) were evaluated with Kruskal-Wallis one-way analysis of variance, and Wilcoxon rank sum testing as post-hoc.

Aedes aegypti mosquitoes [4] = conditions: IVM 0.1, KCZ 5, RIF 10, RTV 10, PBO 10 μg/ml in blood, 50 mosquitoes

concentration at 0 h ([1]; female, Aedes aegypti, whole mosquito (whole-body extract), oral, CYP modulator concentration (ng/mg mosquito), Treatment RTV + IVM (10 µg/ml RTV, 0.1 µg/ml IVM), Batch 3, 0 h post feeding, single mosquitoes 1-20) | SMILES | Course / extent of elimination from the mosquitoes [1] | Type of elimination kinetics in the mosquito [1] | concentration at 0 h ([1]; female, Aedes aegypti, in vivo, CYP modulator concentration (ng/mg mosquito), Treatment KCZ + IVM (5 µg/ml KCZ, 0.1 µg/ml IVM), Batch 1, 0 h post feeding, single mosquitoes 1-20) | concentration at 72 h ([1]; female, Aedes aegypti, in vivo, CYP modulator concentration (ng/mg mosquito), Treatment KCZ + IVM (5 µg/ml KCZ, 0.1 µg/ml IVM), Batch 1, 72 h post feeding, single mosquitoes 1-20) | Effect of the co-administered CYP modulator on the PK of ivermectin [1] | Effect of the co-administered CYP modulator on the PK of ivermectin ([1]; listed as Ketoconazole) | Share of the dose excreted after 6 h ([1]; ketoconazole 5 μg/ml with ivermectin 0.1 μg/ml in blood) | Mosquito fecundity, Batch 1, mg eggs (4 days) (Aedes aegypti mosquitoes [2]) | Mosquito fecundity, Batch 2, mg eggs (4 days) (Aedes aegypti mosquitoes [2]) | Mosquito fecundity, Batch 3, mg eggs (4 days) (Aedes aegypti mosquitoes [2]) | Mosquito fertility, Batch 1, hatching rate (Aedes aegypti mosquitoes [3]) | Mosquito fertility, Batch 2, hatching rate (Aedes aegypti mosquitoes [3]) | Mosquito fertility, Batch 3, hatching rate (Aedes aegypti mosquitoes [3]) | Mosquito survival (%) (Aedes aegypti mosquitoes [4]; 0 days post feeding) | Mosquito survival (%) (Aedes aegypti mosquitoes [4]; 1 day post feeding) | Tmax ([1]; female, Aedes aegypti, in vivo)
 | CC(=O)N1CCN(c2ccc(OCC3COC(Cn4ccnc4)(c4ccc(Cl)cc4Cl)O3)cc2)CC1 (stereo not shown) [ketoconazole] | only few samples could be quantified 36 h post-feeding | first order elimination | 639 ng/g | 0 ng/g | not altered | No effect | 75% | 30.30 mg eggs | 22.14 mg eggs | 33.56 mg eggs | 60% | 73% | 82% |  |  | 
 | CCCCOCCOCCOCc1cc2c(cc1CCC)OCO2 [piperonyl butoxide] |  |  |  |  |  |  |  | 32.86 mg eggs | 20.66 mg eggs | 35.34 mg eggs | 81% | 71% | 86% |  |  | 
 | CO[C@H]1/C=C/O[C@@]2(C)Oc3c(C)c(O)c4c(O)c(c(/C=N/N5CCN(C)CC5)c(O)c4c3C2=O)NC(=O)/C(C)=C\C=C\[C@H](C)[C@H](O)[C@@H](C)[C@@H](O)[C@@H](C)[C@H](OC(C)=O)[C@@H]1C [rifampicin] | almost not eliminated during the first 2 days | accumulated over days |  |  |  |  |  | 32.99 mg eggs | 21.40 mg eggs | 36.14 mg eggs | 83% | 78% | 79% | 100% | 100% | ~36 h
4230 ng/g | CC(C)c1nc(CN(C)C(=O)N[C@H](C(=O)N[C@@H](Cc2ccccc2)C[C@H](O)[C@H](Cc2ccccc2)NC(=O)OCc2cncs2)C(C)C)cs1 [ritonavir] |  |  |  |  |  |  |  | 38.37 mg eggs | 21.29 mg eggs | 33.90 mg eggs | 87% | 74% | 83% |  |  | 
